In the NIST ThermoML archive (doi:10.1016/j.jct.2009.08.012):
“And” between values parts separate entries of the source, which are not always exact repeats. Equal entries are not always repeated. Numbers after ± are expanded uncertainties.

Assay: activity coefficient (dimensionless); of the first substance listed, at infinite dilution; xn = mol fraction of the nth substance listed
Settings: Liquid, Chromatography, x1 = 0

Row | SMILES | activity coefficient (303.15 K) | activity coefficient (313.15 K) | activity coefficient (323.15 K)
1 | CCCCCCCCCC [decane] + CCCCCCCC[N+](C)(CCCCCCCC)CCCCCCCC.O=S(=O)([N-]S(=O)(=O)C(F)(F)F)C(F)(F)F | 3.2 and 3 | 2.74 and 2.72 | 2.5 ± 0.11
2 | C=CCCC [1-pentene] + CCCCCCCC[N+](C)(CCCCCCCC)CCCCCCCC.O=S(=O)([N-]S(=O)(=O)C(F)(F)F)C(F)(F)F | 0.78 ± 0.03 | 0.76 and 0.74 | 0.76 and 0.78
3 | c1ccccc1 [benzene] + CCCCCCCC[N+](C)(CCCCCCCC)CCCCCCCC.O=S(=O)([N-]S(=O)(=O)C(F)(F)F)C(F)(F)F | 0.32 and 0.31 | 0.31 ± 0.04 | 0.31 and 0.32
4 | C#CCCCCC [1-heptyne] + CCCCCCCC[N+](C)(CCCCCCCC)CCCCCCCC.O=S(=O)([N-]S(=O)(=O)C(F)(F)F)C(F)(F)F | 0.89 ± 0.1 | 0.89 and 0.91 | 0.9 and 0.92
5 | CCCCCCC [heptane] + CCCCCCCC[N+](C)(CCCCCCCC)CCCCCCCC.O=S(=O)([N-]S(=O)(=O)C(F)(F)F)C(F)(F)F | 1.3 and 1.31 | 1.26 and 1.28 | 1.25 ± 0.04
6 | CCCO [propan-1-ol] + CCCCCCCC[N+](C)(CCCCCCCC)CCCCCCCC.O=S(=O)([N-]S(=O)(=O)C(F)(F)F)C(F)(F)F | 1.37 and 1.35 | 1.24 and 1.22 | 1.13 and 1.15
7 | CCCCC [pentane] + CCCCCCCC[N+](C)(CCCCCCCC)CCCCCCCC.O=S(=O)([N-]S(=O)(=O)C(F)(F)F)C(F)(F)F | 1.01 and 1 | 0.99 ± 0.11 | 1 and 0.98
8 | C1CCCCC1 [cyclohexane] + CCCCCCCC[N+](C)(CCCCCCCC)CCCCCCCC.O=S(=O)([N-]S(=O)(=O)C(F)(F)F)C(F)(F)F | 0.84 ± 0.03 | 0.8 and 0.81 | 0.8 and 0.79
9 | C1CCCCCCCC1 [cyclononane] + CCCCCCCC[N+](C)(CCCCCCCC)CCCCCCCC.O=S(=O)([N-]S(=O)(=O)C(F)(F)F)C(F)(F)F | 1.76 and 1.74 | 1.68 ± 0.07 | 1.63 and 1.61
10 | C1CCCC1 [cyclopentane] + CCCCCCCC[N+](C)(CCCCCCCC)CCCCCCCC.O=S(=O)([N-]S(=O)(=O)C(F)(F)F)C(F)(F)F | 0.71 ± 0.03 | 0.69 and 0.7 | 0.7 and 0.69
11 | C#CCCCC [1-hexyne] + CCCCCCCC[N+](C)(CCCCCCCC)CCCCCCCC.O=S(=O)([N-]S(=O)(=O)C(F)(F)F)C(F)(F)F | 0.59 ± 0.03 | 0.59 ± 0.03 | 0.6 and 0.62
12 | CO [methanol] + CCCCCCCC[N+](C)(CCCCCCCC)CCCCCCCC.O=S(=O)([N-]S(=O)(=O)C(F)(F)F)C(F)(F)F | 0.88 and 0.89 | 0.81 and 0.82 | 0.79 and 0.81
13 | Cc1ccccc1 [toluene] + CCCCCCCC[N+](C)(CCCCCCCC)CCCCCCCC.O=S(=O)([N-]S(=O)(=O)C(F)(F)F)C(F)(F)F | 0.51 ± 0.03 | 0.52 ± 0.03 | 0.55 and 0.53
14 | CCCCCCCC [octane] + CCCCCCCC[N+](C)(CCCCCCCC)CCCCCCCC.O=S(=O)([N-]S(=O)(=O)C(F)(F)F)C(F)(F)F | 1.52 and 1.54 | 1.46 and 1.49 | 1.44 and 1.43
15 | C1CCCCCCC1 [cyclooctane] + CCCCCCCC[N+](C)(CCCCCCCC)CCCCCCCC.O=S(=O)([N-]S(=O)(=O)C(F)(F)F)C(F)(F)F | 1.08 and 1.07 | 1.01 and 1.03 | 0.99 and 1.03
16 | C#CCCC [1-pentyne] + CCCCCCCC[N+](C)(CCCCCCCC)CCCCCCCC.O=S(=O)([N-]S(=O)(=O)C(F)(F)F)C(F)(F)F | 0.53 and 0.52 | 0.52 and 0.53 | 0.54 and 0.55
17 | C#CCCCCCCC [1-nonyne] + CCCCCCCC[N+](C)(CCCCCCCC)CCCCCCCC.O=S(=O)([N-]S(=O)(=O)C(F)(F)F)C(F)(F)F | 1.15 ± 0.04 | 1.15 and 1.17 | 1.18 ± 0.04
18 | CCCCCCCCC [nonane] + CCCCCCCC[N+](C)(CCCCCCCC)CCCCCCCC.O=S(=O)([N-]S(=O)(=O)C(F)(F)F)C(F)(F)F | 2.57 and 2.59 | 2.39 ± 0.11 | 2.21 ± 0.1
19 | CCO [ethanol] + CCCCCCCC[N+](C)(CCCCCCCC)CCCCCCCC.O=S(=O)([N-]S(=O)(=O)C(F)(F)F)C(F)(F)F | 0.94 and 0.95 | 0.85 and 0.87 | 0.8 and 0.83
20 | C=CCCCCCCC [1-nonene] + CCCCCCCC[N+](C)(CCCCCCCC)CCCCCCCC.O=S(=O)([N-]S(=O)(=O)C(F)(F)F)C(F)(F)F | 1.99 ± 0.09 | 1.87 and 1.91 | 1.81 and 1.85
21 | C#CCCCCCCCC [1-decyne] + CCCCCCCC[N+](C)(CCCCCCCC)CCCCCCCC.O=S(=O)([N-]S(=O)(=O)C(F)(F)F)C(F)(F)F | 1.3 ± 0.04 | 1.33 and 1.31 | 1.32 and 1.34
22 | C1CCCCCC1 [cycloheptane] + CCCCCCCC[N+](C)(CCCCCCCC)CCCCCCCC.O=S(=O)([N-]S(=O)(=O)C(F)(F)F)C(F)(F)F | 0.95 and 0.94 | 0.9 and 0.91 | 0.89 and 0.88
23 | C#CCCCCCC [1-octyne] + CCCCCCCC[N+](C)(CCCCCCCC)CCCCCCCC.O=S(=O)([N-]S(=O)(=O)C(F)(F)F)C(F)(F)F | 1.07 and 1.05 | 1.08 and 1.06 | 1.1 and 1.08
24 | C=CCCCCCC [oct-1-ene] + CCCCCCCC[N+](C)(CCCCCCCC)CCCCCCCC.O=S(=O)([N-]S(=O)(=O)C(F)(F)F)C(F)(F)F | 1.69 ± 0.07 | 1.65 and 1.67 | 1.64 and 1.66
25 | CCCCCC [hexane] + CCCCCCCC[N+](C)(CCCCCCCC)CCCCCCCC.O=S(=O)([N-]S(=O)(=O)C(F)(F)F)C(F)(F)F | 1.13 ± 0.03 | 1.11 and 1.12 | 1.11 and 1.1
26 | C=CCCCCC [1-heptene] + CCCCCCCC[N+](C)(CCCCCCCC)CCCCCCCC.O=S(=O)([N-]S(=O)(=O)C(F)(F)F)C(F)(F)F | 1.46 and 1.44 | 1.45 and 1.43 | 1.44 and 1.42
27 | C=CCCCCCCCC [1-decene] + CCCCCCCC[N+](C)(CCCCCCCC)CCCCCCCC.O=S(=O)([N-]S(=O)(=O)C(F)(F)F)C(F)(F)F | 2.26 and 2.22 | 2.13 and 2.11 | 2.07 and 2.05
28 | CC(C)=O [acetone] + CCCCCCCC[N+](C)(CCCCCCCC)CCCCCCCC.O=S(=O)([N-]S(=O)(=O)C(F)(F)F)C(F)(F)F | 0.35 ± 0.04 | 0.4 and 0.38 | 0.42 and 0.44
29 | C=CCCCC [hex-1-ene] + CCCCCCCC[N+](C)(CCCCCCCC)CCCCCCCC.O=S(=O)([N-]S(=O)(=O)C(F)(F)F)C(F)(F)F | 0.89 and 0.88 | 0.85 ± 0.03 | 0.88 and 0.87
30 | CCC(C)=O [butanone] + CCCCCCCC[N+](C)(CCCCCCCC)CCCCCCCC.O=S(=O)([N-]S(=O)(=O)C(F)(F)F)C(F)(F)F | 0.32 and 0.34 | 0.31 and 0.33 | 0.29 and 0.31
